Data as given in patent US6395730B1, “Potassium channel inhibitors” (Icagen, Inc., priority 1998, dated 2002).

Key:
human Kv1.5 = target: T1, human Kv1.5 (Homo sapiens, UniProt P22460); assay: 86Rb efflux assay; format: cell-based; details: inhibition of 86Rb efflux through Kv1.5 potassium channels expressed in CHO cells; 70 mM KCl depolarization; read-out: IC50 (μM) (flux)
T1 construct: expressed in transfected cells
Method: Cells stably transfected with cDNA for human Kv1.5 (in pcDNA3 vector) were grown as confluent monolayers in 96 well tissue culture plates in MEM alpha with 10% heat inactivated fetal bovine serum and 400 μg/ml G418. Cells were incubated overnight in growth media containing 1 μCi/ml ^86Rb to permit intracellular uptake of the isotope. At the end of the incubation period, the ^86Rb solution is aspirated and the cells washed three times with Earls Balanced Salt Solution (EBSS) which contains (in mM) 132 NaCl, 5.4 KCl, 1.8 CaCl2, 0.8 mM MgCl2 10 mM HEPES and 5 mM glucose. The cells were then preincubated for 10 minutes at room temperature in 100 μl/well of EBSS or EBSS containing test compounds. At the end of this period the wells were aspirated and to each well is then added 100 μl of a modified EBSS solution containing 70 mM KCl (NaCl replaced by KCl) and the compound to be tested. The high KCl concentration is utilized to depolarize the cells to membrane potentials that will activate Kv1.5 channels. After a 1 minute incubation in 70 mM KCl EBSS plus test compound, the solution is removed and placed into the appropriate well of a 96 well counting plate for analysis. Finally 100 μl of 0.1% sodium dodecyl sulfate in EBSS is added to each well to lyse the cells. The lysate is taken for analysis to determine final cell content of ^86Rb. Samples were counted in a Wallac Microbeta liquid scintillation counter by Cerenkov emission. Efflux is expressed as a percentage of the initial cell content of ^86Rb.
The testing results of selective compounds from Tables 1 and 2 using this assay are reported in Table 3 (flux) as the potency for inhibition of ^86Rb efflux through Kv1.5 potassium channels expressed in CHO cells by compounds of the invention.

[1] = target: Kv1.5 potassium channel subunit (Homo sapiens, UniProt P22460); assay: Electrophysiological studies (whole cell patch clamp); format: cell-based; details: inhibition of Kv1.5 potassium currents, Chinese hamster ovary cells stably expressing Kv1.5
Method: Electrophysiological recordings of potassium currents in Chinese hamster ovary cells stably expressing the gene construct for the Kv1.5 potassium channel subunit were performed using the whole cell configuration of the patch clamp technique (Hamill et al., Pflugers Archiv 391:85, 1981). Cell lines expressing Kv1.5 were prepared using standard techniques known to those skilled in the art. Cells were plated on glass coverslips at a density of 2×10^4 cells/coverslip and used within 24-48 hours. Solutions used for electrophysiological recordings were as follows. Extracellular bathing solutions contained (in mM) 132 NaCl, 5.4 KCl, 1.8 CaCl2, 0.8 MgCl2, 10 HEPES, 5 glucose at pH 7.3. Electrode pipette solutions for measuring Kv1.5 contain (in mM) 100 KF, 40 KCl, 5 NaCl, 2 MgCl2, 5 mM EGTA, 10 mM HEPES and 5 glucose at pH 7.4, 295 mOsm. The coverslips were placed in a small chamber (volume ˜200 μl) on the mechanical stage of an inverted microscope and […] (2 ml/min) with extracellular recording solution. Drug application is achieved via a series of narrow-bore glass capillary tubes (inner diameter ˜100 μm) positioned approximately 200 μm from the cell.
The testing results of selective compounds from Tables 1 and 2 using this assay are reported in Table 3 (EP) as the potency for inhibition of Kv1.5 potassium currents by compounds of the invention.

Kv1.5 potassium channel subunit, sequence (P22460 whole entry): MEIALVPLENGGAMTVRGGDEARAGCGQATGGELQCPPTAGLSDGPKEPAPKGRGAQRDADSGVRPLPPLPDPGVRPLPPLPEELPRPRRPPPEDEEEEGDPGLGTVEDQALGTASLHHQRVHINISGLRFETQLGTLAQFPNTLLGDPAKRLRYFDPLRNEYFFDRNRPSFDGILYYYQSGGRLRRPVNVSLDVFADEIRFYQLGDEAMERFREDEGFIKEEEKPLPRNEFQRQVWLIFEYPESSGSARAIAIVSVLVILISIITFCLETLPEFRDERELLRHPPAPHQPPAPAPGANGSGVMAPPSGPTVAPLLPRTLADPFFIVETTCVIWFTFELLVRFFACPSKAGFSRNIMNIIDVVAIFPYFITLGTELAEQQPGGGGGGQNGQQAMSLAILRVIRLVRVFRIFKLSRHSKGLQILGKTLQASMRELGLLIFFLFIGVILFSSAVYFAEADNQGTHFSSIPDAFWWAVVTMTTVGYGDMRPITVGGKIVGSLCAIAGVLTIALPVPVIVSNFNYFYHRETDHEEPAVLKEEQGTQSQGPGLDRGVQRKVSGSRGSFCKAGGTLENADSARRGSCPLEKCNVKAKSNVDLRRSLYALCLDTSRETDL
T1 sequence (P22460 whole entry): as above

SMILES | IC50 (human Kv1.5) [µM] | IC50 [1] [µM]
CCCCCCN1C(=O)CSC1c1cccc(OC)c1 (centres unmarked) [77 of Table 1] | 10.5 | 1.6
COc1ccc(CCN2C(=O)CSC2c2ccc(OC)c(OC)c2)cc1 (centres unmarked) [5 of Table 1] | 29.6 | 6
Cc1ccc(C2SCC(=O)N2CC#Cc2ccccc2)cc1C (centres unmarked) [82 of Table 1] | 4.7 | –
COc1ccc(CCN2C(=O)CCSC2c2ccc(C)c(C)c2)cc1 (centres unmarked) [2 of Table 2] | 1.5 | 0.3
COc1ccc(CCN2C(=O)CSC2c2cccc(OC)c2)cc1 (centres unmarked) [1 of Table 1] | 3.9 | 0.6
COc1ccc(CCN2C(=O)C(C)SC2c2ccc3c(c2)OCCO3)cc1 (centres unmarked) [45 of Table 1] | – | 0.6
COc1ccc(CCN2C(=O)CSC2c2ccc(F)c(F)c2)cc1 (centres unmarked) [23 of Table 1] | 14.5 | –
COc1ccc(CCN2C(=O)CCSC2c2ccc3c(c2)OCO3)cc1 (centres unmarked) [18 of Table 2] | 1.5 | 1
CCc1ccc(C2SCC(=O)N2CCc2ccc(OC)cc2)s1 (centres unmarked) [67 of Table 1] | 1.3 | 0.7
Cc1ccc(C2SCC(=O)N2CCCCc2ccccc2)cc1C (centres unmarked) [60 of Table 1] | 6.9 | 0.3
COc1ccc(CCN2C(=O)CSC2c2ccc(C)c(C)c2)cc1 (centres unmarked) [52 of Table 1] | 0.9 | 0.2
COc1ccc(CN2C(=O)CSC2c2cccc(OC)c2)cc1 (centres unmarked) [36 of Table 1] | 30 | 4.7
COc1cccc(CCN2C(=O)CSC2c2ccc3c(c2)OCO3)c1 (centres unmarked) [8 of Table 1] | 9.9 | 1.2
